Test results as given in ChEMBL document CHEMBL1201862, “PubChem BioAssay data set” (2004).
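A five-concentration, 48-hour dose response in 96-well plates underlies each endpoint, interpolated linearly between surrounding concentrations. GI50 is the concentration that inhibits growth by half.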 Active and inactive are the calls of the source. Rule as the data show it: active = GI50 up to about 1.1 µM and inactive = higher.

Key:
Assay in all cases: NCI tumour cell line growth inhibition, 48 h
OVCAR-3 = system: OVCAR-3
HT-29 = system: HT-29
MCF7 = system: MCF7
K562 = system: K562
MDA-N = system: MDA-N
OVCAR-5 = system: OVCAR-5
RPMI-8226 = system: RPMI-8226
HCC 2998 = system: HCC 2998
EKVX = system: EKVX
TK-10 = system: TK-10
M14 = system: M14
RXF 393 = system: RXF 393
COLO 205 = system: COLO 205
SR = system: SR
SNB-75 = system: SNB-75
OVCAR-8 = system: OVCAR-8
NCI/ADR-RES = system: NCI/ADR-RES
Hs-578T = system: Hs-578T
MDA-MB-231 = system: MDA-MB-231

Measured: GI50

CC(=O)Oc1ccc2c(c1)CC[C@@H]1C2[C@@H](O[N+](=O)[O-])C[C@@]2(C)C1CC[C@@H]2O[N+](=O)[O-] (some centres not stated)
inactive: OVCAR-3 13.2 µM | HT-29 16.4 µM | MCF7 9.42 µM | K562 6.5 µM | MDA-N 14.3 µM | OVCAR-5 19.4 µM | RPMI-8226 7.41 µM | HCC 2998 1.63 µM | EKVX 12.3 µM | TK-10 19.8 µM | M14 14 µM | RXF 393 11.5 µM | COLO 205 16.8 µM | SR 5.31 µM | SNB-75 13.5 µM | OVCAR-8 14.6 µM | NCI/ADR-RES 14.3 µM | Hs-578T 19.1 µM

c1ccc([P+](CCNCCNCC[P+](c2ccccc2)(c2ccccc2)c2ccccc2)(c2ccccc2)c2ccccc2)cc1
inactive: OVCAR-3 > 100 µM | HT-29 > 100 µM | MCF7 > 100 µM | MDA-N > 100 µM | OVCAR-5 > 100 µM | RPMI-8226 > 100 µM | HCC 2998 > 100 µM | EKVX > 100 µM | TK-10 > 100 µM | MDA-MB-231 > 100 µM | M14 > 100 µM | RXF 393 > 100 µM | COLO 205 > 100 µM | SNB-75 > 100 µM | OVCAR-8 > 100 µM | NCI/ADR-RES > 100 µM | Hs-578T > 100 µM

ClCCN1CCC2(CC1)SSC1(CCN(CCCl)CC1)S2
inactive: OVCAR-3 19.7 µM | HT-29 48 µM | MCF7 11.6 µM | K562 37.8 µM | MDA-N > 100 µM | OVCAR-5 29.6 µM | RPMI-8226 21.4 µM | TK-10 35.9 µM | MDA-MB-231 57.5 µM | M14 61.4 µM | COLO 205 15.8 µM | SR 7.74 µM | SNB-75 59.3 µM | OVCAR-8 > 100 µM | NCI/ADR-RES 49.7 µM | Hs-578T 45.1 µM

COc1cccc(N2C(=O)/C(=C\c3ccccc3)SC2c2cc(OC)c(OC)c(OC)c2)c1 (configuration not stated)
inactive: HT-29 45.2 µM | MCF7 42.4 µM | K562 26.9 µM | MDA-N 17.6 µM | OVCAR-5 > 100 µM | RPMI-8226 32.1 µM | HCC 2998 32.3 µM | EKVX 44.2 µM | TK-10 > 100 µM | MDA-MB-231 98.2 µM | M14 40.3 µM | COLO 205 39.7 µM | SR 26.3 µM | SNB-75 18 µM | OVCAR-8 44.1 µM | NCI/ADR-RES 41.9 µM | Hs-578T 30.4 µM

NC(=O)N/N=C(\Cc1cc(=O)oc2cc(O)ccc12)C(=O)Nc1ccccc1C(N)=O
inactive: OVCAR-3 > 100 µM | HT-29 > 100 µM | MCF7 > 100 µM | MDA-N > 100 µM | OVCAR-5 > 100 µM | HCC 2998 61 µM | EKVX > 100 µM | TK-10 > 100 µM | MDA-MB-231 > 100 µM | M14 > 100 µM | RXF 393 > 100 µM | COLO 205 > 100 µM | SNB-75 > 100 µM | OVCAR-8 > 100 µM | NCI/ADR-RES > 100 µM | Hs-578T > 100 µM

CCCCN(Cc1ccccc1)/C(=N/C#N)N(Cc1ccccc1)Cc1ccccc1
inactive: OVCAR-3 4.3 µM | HT-29 10.9 µM | MCF7 16.1 µM | K562 14 µM | MDA-N 14.2 µM | OVCAR-5 27 µM | RPMI-8226 12.6 µM | HCC 2998 26.5 µM | EKVX 31.3 µM | TK-10 38.1 µM | MDA-MB-231 18.7 µM | M14 12.8 µM | RXF 393 17.3 µM | COLO 205 15.7 µM | SNB-75 21.1 µM | OVCAR-8 27.9 µM | NCI/ADR-RES 18.7 µM | Hs-578T 23.4 µM

C=C(C)[C@@]1(OC(=O)c2cc([N+](=O)[O-])cc([N+](=O)[O-])c2)C[C@@H]2CCCC[C@@H]21
inactive: HT-29 47.9 µM | MCF7 64 µM | K562 > 100 µM | MDA-N > 100 µM | OVCAR-5 > 100 µM | RPMI-8226 45.4 µM | HCC 2998 59.6 µM | EKVX 37.2 µM | TK-10 > 100 µM | MDA-MB-231 > 100 µM | M14 53.6 µM | COLO 205 39.2 µM | SR > 100 µM | SNB-75 > 100 µM | OVCAR-8 > 100 µM | NCI/ADR-RES > 100 µM | Hs-578T > 100 µM

CC[C@]12C=CCN3CCC4(c5cc(/N=N/c6ccc([N+](=O)[O-])cc6)c(OC)cc5N(C)[C@H]4[C@@](O)(C(=O)OC)[C@@H]1OC(C)=O)[C@@H]32 (some centres not stated)
inactive: OVCAR-3 4.53 µM | HT-29 10.4 µM | MCF7 11.6 µM | K562 6.32 µM | MDA-N 12.9 µM | OVCAR-5 13 µM | RPMI-8226 3.48 µM | EKVX 9.86 µM | TK-10 17.2 µM | MDA-MB-231 9.59 µM | M14 15.5 µM | RXF 393 12.5 µM | COLO 205 4.63 µM | SR 9.71 µM | SNB-75 9.48 µM | OVCAR-8 7.46 µM | NCI/ADR-RES 7.18 µM | Hs-578T 18.4 µM
